This data set in a line: In vitro skin permeation with human skin, Franz-type diffusion cells. Conditions: solvent/skin penetration enhancer DEET and/or Crotamiton, concentration below saturation, receptor at 32° C. The data set is classed as in vitro ADME. Here is the method:
Dermatomed human skin sections were mounted onto the Franz cells and transdermal drug delivery systems mounted on tape backings (1.5 cm^2) were placed on the stratum corneal surface of the skin. Each Franz cell contained 7 ml of ethanol phosphate buffered saline as the receptor medium, maintained at 32° C. At predetermined time intervals 0.7 ml of the receptor solution was sampled and an equal amount replaced. The samples were analysed by High Pressure Liquid Chromatography.

Drawing on patent US20050287195A1, “Transdermal drug delivery systems” (priority 1998, published 2005), this text covers skin mass transport for 2 molecules.

Take `C[C@]12CC[C@@H]3c4ccc(O)cc4CC[C@H]3[C@@H]1CC[C@@H]2O` [Estradiol]: the skin mass transport entry is “enhanced”.

For the molecule `C#C[C@]1(OC(C)=O)CC[C@H]2[C@@H]3CCC4=CC(=O)CC[C@@H]4[C@H]3CC[C@@]21C` [Norethisterone Acetate], the skin mass transport entry is recorded as “enhanced”.
